Laboratory results taken from PubChem BioAssay (NCI).
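These data come from cells grown in 96-well plates and exposed to compound for 48 hours at five concentrations. Here, GI50 denotes the concentration required for 50% inhibition of growth. TGI: total growth inhibition.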

What was measured:
Assay in all cases: growth of human tumour cells (NCI), 48 h
RPMI-8226 leukemia = tested on: RPMI-8226 leukemia
SF-295 CNS = tested on: SF-295 CNS
RXF 393 renal = tested on: RXF 393 renal
UACC-257 melanoma = tested on: UACC-257 melanoma
NCI-H23 lung = tested on: NCI-H23 lung
SW-620 colon = tested on: SW-620 colon
U251 CNS = tested on: U251 CNS
OVCAR-4 ovarian = tested on: OVCAR-4 ovarian
SF-268 CNS = tested on: SF-268 CNS
M14 melanoma = tested on: M14 melanoma
ACHN renal = tested on: ACHN renal
NCI-H522 lung = tested on: NCI-H522 lung

SMILES	TGI (RPMI-8226 leukemia) [µM]	TGI (SF-295 CNS) [µM]	TGI (RXF 393 renal) [µM]	TGI (UACC-257 melanoma) [µM]	TGI (NCI-H23 lung) [µM]	TGI (SW-620 colon) [µM]	TGI (U251 CNS) [µM]	TGI (OVCAR-4 ovarian) [µM]	TGI (SF-268 CNS) [µM]	TGI (M14 melanoma) [µM]	TGI (ACHN renal) [µM]	TGI (NCI-H522 lung) [µM]	GI50 (SF-295 CNS) [µM]	GI50 (RXF 393 renal) [µM]	GI50 (ACHN renal) [µM]	GI50 (UACC-257 melanoma) [µM]	GI50 (NCI-H23 lung) [µM]	GI50 (SW-620 colon) [µM]	GI50 (U251 CNS) [µM]	GI50 (SF-268 CNS) [µM]
CN(C)CCNC(=O)c1cccc2c(=O)c3ccccc3oc12	> 87.1	98.9	> 100	74.4	> 100	> 100	> 100	> 90.5	> 100	–	–	–	–	–	–	–	–	–	–	–
CC(=O)C(C(c1ccccc1)N1CCOCC1)N1CCOCC1 (centres undefined)	> 100	> 100	> 100	38.9	> 100	> 100	> 100	> 100	> 100	> 100	> 100	> 100	–	–	–	–	–	–	–	–
CC1(C)[C@@H]2CC[C@]1(C)[C@H](OC(=O)CSC#N)C2	–	> 100	> 100	> 100	> 100	35.4	> 100	> 100	> 100	> 100	> 100	> 100	–	–	–	–	–	–	–	–
COC1OC(CS(=O)(=O)O)C(O)C(O)C1O (centres undefined)	> 100	> 100	> 100	> 100	> 100	> 100	> 100	> 100	–	> 100	–	–	–	–	–	–	–	–	–	–
CC1=C2C(O)C(C(C)C(=O)N(C)C)CCC2(C)C=CC1=O (centres undefined)	> 100	> 100	> 100	> 100	> 100	> 100	> 100	> 100	> 100	–	–	> 100	–	–	–	–	–	–	–	–
CCC1C[N+]23CCc4c([nH]c5ccccc45)C2CC1CC3 (centres undefined)	> 100	> 100	> 100	> 100	> 100	> 100	> 100	> 100	> 100	> 100	> 100	> 100	–	–	–	–	–	–	–	–
CCCC(C)c1ccc(OCCCCCCN2CCNCC2)cc1 (centres undefined)	–	3.44	3	4.72	5.62	3.57	3.07	–	9.89	–	5.32	–	1.82	1.55	2.23	2.05	2.13	1.72	1.57	2.97
Cc1ccc(S(=O)(=O)Nc2cccc3c(=O)[nH]cnc23)cc1	97.7	> 100	> 100	> 100	> 100	> 100	> 100	> 100	> 100	> 100	> 100	> 100	–	–	–	–	–	–	–	–
CCOP(=Nc1ccc(N(C)C)cc1)(OCC)OCC	> 100	> 100	> 100	> 100	> 100	–	> 100	> 100	> 100	> 100	> 100	> 100	–	–	–	–	–	–	–	–
O=C(c1ccccc1)c1ccc2n[se]nc2c1	> 100	37	> 100	> 100	> 100	> 100	> 100	> 100	> 100	> 100	> 100	> 100	–	–	–	–	–	–	–	–
